Patent US11172674B2, “Preservation solutions” (ORGAN PRESERVATION SOLUTIONS LIMITED, priority 2017, dated 2021)

Assays:
[1] = Stability of aspirin in preservation solution on storage (HPLC); type: physicochemical
Text: FIG. 1 illustrates the stability of aspirin in a preservation solution: HPLC methods were developed to measure the concentration of aspirin and salicylic acid in the Prior Art solution. Aspirin is rapidly hydrolysed to salicylic acid and acetic acid during storage. […] As an example, FIG. 1 illustrates that storage of the solution for 8 weeks results in 100% of the aspirin converting to salicylic acid and the production of equimolar amounts of damaging acetic acid.

human cells = details: Heeneman et al 1993; cited from earlier work

Compound	parent compound remaining ([1]; Prior Art solution, after 8 weeks storage, HPLC)	aspirin converting to salicylic acid ([1]; storage of the prior art solution for 8 weeks) [%]	concentration toxic to human cells (human cells) [µM]
CC(=O)Oc1ccccc1C(=O)O [aspirin, acetylsalicylic acid]	none of the parent compound remains	100	
N [ammonia]			300
